Experiments:
Format in all cases: in vivo
[1] = tested on: kochia (Bassia scoparia); test: Test A postemergence, kochia; details: Postemergence, 0 to 100 scale (0 no effect, 100 complete control); for Kochia plant response rating: visual injury vs untreated controls after approx. 10 days
From the text: (§1) Seeds of plant species selected from barnyardgrass (Echinochloa crus-galli), kochia (Bassia scoparia), ragweed (common ragweed, Ambrosia artemisiifolia), Ryegrass, Italian (Italian ryegrass, Lolium multiflorum), Foxtail, Giant (giant foxtail, Setaria faberi), and pigweed (Amaranthus retroflexus) were planted into a blend of loam soil and sand and treated preemergence with a directed soil spray using test chemicals formulated in a non-phytotoxic solvent mixture which included a surfactant. At the same time, plants selected from these weed species and also wheat (Triticum aestivum), corn (Zea mays), blackgrass (Alopecurus myosuroides), and galium (catchweed bedstraw, Galium aparine) were planted in pots containing the same blend of loam soil and sand and treated with postemergence applications of test chemicals formulated in the same manner. Plants ranged in height from 2 to 10 cm and were in the one- to two-leaf stage for the postemergence treatment. […] A dash (-) response means no test result.

[2] = tested on: barnyardgrass (Echinochloa crus-galli); test: Test A postemergence, barnyardgrass; details: Postemergence, 0 to 100 scale (0 no effect, 100 complete control); for Barnyardgrass plant response rating: visual injury vs untreated controls after approx. 10 days
From the text: as §1

[3] = tested on: Ryegrass, Italian (Italian ryegrass, Lolium multiflorum); test: Test A postemergence, Ryegrass, Italian; details: Postemergence, 0 to 100 scale (0 no effect, 100 complete control); for Ryegrass, Italian plant response rating: visual injury vs untreated controls after approx. 10 days
From the text: as §1

[4] = tested on: galium (catchweed bedstraw, Galium aparine); test: Test A postemergence, galium; details: Postemergence, 0 to 100 scale (0 no effect, 100 complete control); for Galium plant response rating: visual injury vs untreated controls after approx. 10 days
From the text: as §1

[5] = tested on: ragweed (common ragweed, Ambrosia artemisiifolia); test: Test A postemergence, ragweed; details: Postemergence, 0 to 100 scale (0 no effect, 100 complete control); for Ragweed plant response rating: visual injury vs untreated controls after approx. 10 days
From the text: as §1

[6] = tested on: ragweed (common ragweed, Ambrosia artemisiifolia); test: Test A preemergence, ragweed; details: Preemergence; for Ragweed plant response rating: 125 g ai/ha, visual injury on 0 to 100 scale (0 no effect, 100 complete control), approximately 10 days; for Plant response rating, Ragweed: 500 g ai/ha, 0 to 100 scale (0 no effect, 100 complete control)
From the text: as §1

[7] = tested on: Foxtail, Giant (giant foxtail, Setaria faberi); test: Test A postemergence, Foxtail, Giant; details: Postemergence, 0 to 100 scale (0 no effect, 100 complete control); for Foxtail, Giant plant response rating: visual injury vs untreated controls after approx. 10 days
From the text: as §1

[8] = tested on: wheat (Triticum aestivum); test: Test A postemergence, wheat; details: Postemergence, 0 to 100 scale (0 no effect, 100 complete control); for Wheat plant response rating: visual injury vs untreated controls after approx. 10 days
From the text: as §1

[9] = tested on: barnyardgrass (Echinochloa crus-galli); test: Test A preemergence, barnyardgrass; details: Preemergence; for Barnyardgrass plant response rating: 125 g ai/ha, visual injury on 0 to 100 scale (0 no effect, 100 complete control), approximately 10 days; for Plant response rating, Barnyardgrass: 500 g ai/ha, 0 to 100 scale (0 no effect, 100 complete control)
From the text: as §1

[10] = tested on: pigweed (Amaranthus retroflexus); test: Test A postemergence, pigweed; details: Postemergence, 0 to 100 scale (0 no effect, 100 complete control); for Pigweed plant response rating: visual injury vs untreated controls after approx. 10 days
From the text: as §1

[11] = tested on: Ryegrass, Italian (Italian ryegrass, Lolium multiflorum); test: Test A preemergence, Ryegrass, Italian; details: Preemergence; for Ryegrass, Italian plant response rating: 125 g ai/ha, visual injury on 0 to 100 scale (0 no effect, 100 complete control), approximately 10 days; for Plant response rating, Ryegrass, Italian: 500 g ai/ha, 0 to 100 scale (0 no effect, 100 complete control)
From the text: as §1

[12] = tested on: blackgrass (Alopecurus myosuroides); test: Test A postemergence, blackgrass; details: Postemergence, 0 to 100 scale (0 no effect, 100 complete control); for Blackgrass plant response rating: visual injury vs untreated controls after approx. 10 days
From the text: as §1

[13] = tested on: Foxtail, Giant (giant foxtail, Setaria faberi); test: Test A preemergence, Foxtail, Giant; details: Preemergence; for Foxtail, Giant plant response rating: 125 g ai/ha, visual injury on 0 to 100 scale (0 no effect, 100 complete control), approximately 10 days; for Plant response rating, Foxtail, Giant: 500 g ai/ha, 0 to 100 scale (0 no effect, 100 complete control)
From the text: as §1

[14] = tested on: kochia (Bassia scoparia); test: Test A preemergence, kochia; details: Preemergence; for Kochia plant response rating: 125 g ai/ha, visual injury on 0 to 100 scale (0 no effect, 100 complete control), approximately 10 days; for Plant response rating, Kochia: 500 g ai/ha, 0 to 100 scale (0 no effect, 100 complete control)
From the text: as §1

[15] = tested on: corn (Zea mays); test: Test A postemergence, corn; details: Postemergence, 0 to 100 scale (0 no effect, 100 complete control); for Corn plant response rating: visual injury vs untreated controls after approx. 10 days
From the text: as §1

[16] = 125 g ai/ha, visual injury approx. 10 days
[17] = 500 g ai/ha, visual injury, approx. 10 days

| Compound | Ragweed plant response rating [6] | Plant response rating, Ragweed [6] | Barnyardgrass plant response rating [9] | Plant response rating, Barnyardgrass [9] | Ryegrass, Italian plant response rating [11] | Plant response rating, Ryegrass, Italian [11] | Foxtail, Giant plant response rating [13] | Plant response rating, Foxtail, Giant [13] | Kochia plant response rating [14] | Plant response rating, Kochia [14] | Plant response rating, Kochia ([1]; 125 g ai/ha) | Kochia plant response rating ([1]; 500 g ai/ha) | Plant response rating, Barnyardgrass ([2]; 125 g ai/ha) | Barnyardgrass plant response rating ([2]; 500 g ai/ha) | Plant response rating, Ryegrass, Italian ([3]; 125 g ai/ha) | Ryegrass, Italian plant response rating ([3]; 500 g ai/ha) | Plant response rating, Galium ([4]; 125 g ai/ha) | Galium plant response rating ([4]; 500 g ai/ha) | Plant response rating, Ragweed ([5]; 125 g ai/ha) | Ragweed plant response rating ([5]; 500 g ai/ha) | other results |
| --- | --- | --- | --- | --- | --- | --- | --- | --- | --- | --- | --- | --- | --- | --- | --- | --- | --- | --- | --- | --- | --- |
| CCc1cc(-c2cc(N(S(=O)(=O)C(F)(F)F)S(=O)(=O)C(F)(F)F)c(C)cc2C)c(=O)n(C)n1 [Compound 28] | 0 | 30 | 60 | 100 | 50 | 90 | 30 | 90 | 70 | 90 | – | – | – | – | – | – | – | – | – | – | Plant response rating, Kochia [1, 16]: 0; Plant response rating, Kochia [1, 17]: 30; Plant response rating, Barnyardgrass [2, 16]: 0; Plant response rating, Barnyardgrass [2, 17]: 80; Plant response rating, Ryegrass, Italian [3, 16]: 0; Plant response rating, Ryegrass, Italian [3, 17]: 0; Plant response rating, Galium [4, 16]: 20; Plant response rating, Galium [4, 17]: 70; Plant response rating, Ragweed [5, 16]: 20; Plant response rating, Ragweed [5, 17]: 80; Plant response rating, Foxtail, Giant [7, 16]: 0; Plant response rating, Foxtail, Giant [7, 17]: 10; Plant response rating, Wheat [8, 16]: 30; Plant response rating, Wheat [8, 17]: 50; Plant response rating, Pigweed [10, 16]: 0; Plant response rating, Pigweed [10, 17]: 40; Plant response rating, Blackgrass [12, 16]: 0; Plant response rating, Blackgrass [12, 17]: 30; Plant response rating, Corn [15, 16]: 0; Plant response rating, Corn [15, 17]: 0 |
| Cc1cc(C)c(C2=NOC3CCCC23)cc1NS(=O)(=O)C(F)(F)F (stereo not drawn) [Compound 166] | 20 | 80 | 100 | 100 | 70 | 100 | 80 | 100 | 90 | 100 | 50 | 80 | 90 | 90 | 90 | 90 | 80 | 90 | 40 | 80 | Plant response rating, Foxtail, Giant ([7]; 125 g ai/ha): 50; Foxtail, Giant plant response rating ([7]; 500 g ai/ha): 60; Plant response rating, Wheat ([8]; 125 g ai/ha): 70; Wheat plant response rating ([8]; 500 g ai/ha): 70; Plant response rating, Pigweed ([10]; 125 g ai/ha): 40; Pigweed plant response rating ([10]; 500 g ai/ha): 90; Plant response rating, Blackgrass ([12]; 125 g ai/ha): 10; Blackgrass plant response rating ([12]; 500 g ai/ha): 20; Plant response rating, Corn ([15]; 125 g ai/ha): 10; Corn plant response rating ([15]; 500 g ai/ha): 50 |
| Cc1cc(C)c(C2=NOC3(CCC(F)(F)CC3)C2)cc1NS(=O)(=O)C(F)(F)F [Compound 172] | 40 | 90 | 90 | 90 | 100 | 100 | 90 | 100 | 60 | 90 | 40 | 80 | 60 | 80 | 60 | 80 | 90 | 90 | 60 | 80 | Plant response rating, Foxtail, Giant ([7]; 125 g ai/ha): 20; Foxtail, Giant plant response rating ([7]; 500 g ai/ha): 80; Plant response rating, Wheat ([8]; 125 g ai/ha): 30; Wheat plant response rating ([8]; 500 g ai/ha): 70; Plant response rating, Pigweed ([10]; 125 g ai/ha): 70; Pigweed plant response rating ([10]; 500 g ai/ha): 90; Plant response rating, Blackgrass ([12]; 125 g ai/ha): 0; Blackgrass plant response rating ([12]; 500 g ai/ha): 40; Plant response rating, Corn ([15]; 125 g ai/ha): 40; Corn plant response rating ([15]; 500 g ai/ha): 70 |
| Cc1cc(C)c(C2=NOC3(CCSCC3)C2)cc1NS(=O)(=O)C(F)(F)F [Compound 176] | 40 | 90 | 70 | 90 | 90 | 100 | 100 | 100 | 70 | 90 | 40 | 50 | 80 | 90 | 60 | 80 | 90 | 90 | 60 | 90 | Plant response rating, Foxtail, Giant ([7]; 125 g ai/ha): 90; Foxtail, Giant plant response rating ([7]; 500 g ai/ha): 90; Plant response rating, Wheat ([8]; 125 g ai/ha): 60; Wheat plant response rating ([8]; 500 g ai/ha): 60; Plant response rating, Pigweed ([10]; 125 g ai/ha): 60; Pigweed plant response rating ([10]; 500 g ai/ha): 90; Plant response rating, Blackgrass ([12]; 125 g ai/ha): 40; Blackgrass plant response rating ([12]; 500 g ai/ha): 70; Plant response rating, Corn ([15]; 125 g ai/ha): 70; Corn plant response rating ([15]; 500 g ai/ha): 80 |
